Data as given in patent US8704037B2, “Targeted cell death” (priority 2007, dated 2014).

Assays:
[1] = test system: MBP+ cells (oligodendrocytes); experiment: Mixed cortical cultures infected with pLpMBP(iCP9)MG and exposed to CID; assay type: cell-based, rat
Method: High density mixed cortical cultures were established after isolation of cerebral cortices from 3 Fischer rats as previously described. Cerebral cortices were removed and place in ice-cold Hanks' balanced salt solution, centrifuged and digested with trypsin at 37° for 10 minutes. Tissue was centrifuged and resuspended in minimal essential medium with Earle's salt (Invitrogen) containing heat-inactivated fetal bovine serum and horse serum. Cell suspension was passed through cell strainers and plated. After three hours the medium is changed to Neurobasal medium supplemented with B27 MinusAO (Invitrogen). Cultures were maintained for seven days and then immunohistochemical staining was performed to verify the composition of the cultures.
The mixed primary cortical cultures (consisting of all CNS cell types) were infected with pLpMBP(iCP9)MG and exposed to CID and then analyzed for cell death of oligodendrocytes (MBP+ cells). The MBP promoter was designed to induce cell death only in MBP+ cells, the majority of which are mature oligodendrocytes.

[2] = test system: primary oligodendrocyte cultures; experiment: CID-induced cell death in primary oligodendrocyte cultures transduced with iCP9 virus; assay type: cell-based, rat; conditions: CID 10 nM; iCP9-expressing primary oligodendrocyte cultures; fluorescent microscope and Methylene Blue viability staining
Method: To induce timely cell death. Collected virus was used to transduce primary oligodendrocyte cultures that have been established. Cells were cultured and evaluated using fluorescent microscopy for the expression of GFP. The extent of GFP positive cells correlated with the viral infection efficacy. Cell protein isolation was conducted and protein isolates were subjected to Western blot transfer to detect stable expression of the iCP9 protein. The resultant membrane was probed with anti-caspase 9 antibody (R&D Systems Inc. #AF8301). Once the stable expression of iCP9 was confirmed at the protein level with Western blot techniques, the CID was applied to these cells in culture at a 10 nM concentration. […] Cell death was detected by viewing cultures under the fluorescent microscope and by using Methylene Blue (Sigma) viability staining of cells in culture after exposure to the CID. All experiments were run in parallel using the astrocyte-derived U87 cell line as a negative control.
Establish primary oligodendrocyte cultures. […] The status of cellular differentiation was monitored by noting the change in cellular morphology in culture. […]
Once this system and differentiation pattern was confirmed, A2B5^+ primary cell cultures were cultured in pΔmbpICP9/mEGFP viral supernatant for 8 hours. […] Infected cells expressed EGFP and were readily identified using the proper fluorescent filter system. […]

GFAP+ cells (astrocytes) [3] = experiment: Pan purified GFAP+ cultures infected with pLpGFAP(iCP9)MG and exposed to CID; assay type: cell-based; conditions: 4 hours after CID
Excerpt: To test the specificity of the GFAP promoter system, GFAP+ pan purified cultures (cultures of purified astrocytes) were transfected with pLpGFAP(iCP9)MG and exposed to CID.

[4] = test system: primary oligodendrocyte cultures; conditions: pΔmbpICP9/mEGFP virus; based on published data in other cell types (Straathof et al., 2005); cited from earlier work
[5] = test system: infected region of the CNS; experiment: pΔmbpICP9/mEGFP virus applied to the CNS, then intraperitoneal CID; assay type: in vivo, rat; conditions: CID via intraperitoneal injection after virus injection
Method: The virus described above, pΔmbpICP9/mEGFP, which contains the inducible caspase 9 sequence was applied to the CNS of adult rats to create an in vivo model of CNS demyelination. Administration of the viral vector allowed effective transfer of genetic information in a variable area of parenchyma based on the rate of administration (convective distribution) and viral titer. […] First, adult Fischer rats were anaesthetized by intraperitoneal injection of ketamine hydrochloride (80 mg/kg) and xylazine ([…]) and placed in a stereotactic frame. A midline scalp incision is made. Access to brain parenchyma was accomplished by placement of a right-sided burr hole through the skull, at various predetermined coordinates depending on the desired location of the lesion. […] The volume of viral vector (e.g., lentivirus) delivered depends upon the infection efficacy as determined herein and the target area size. After injection, the needle is left in place for five minutes and then slowly withdrawn over the next four minutes. The skin was closed with sutures.
For virus administration to the spinal cord an incision was made in the thoracic spine followed by a lamenectomy to expose the spinal cord. A No. 32S-gauge needle was passed into the posterior column at predetermined coordinates.

[6] = test system: cells infected with virus encoding iCP9; experiment: Cell Death Detection ELISA Plus after virus dilutions and CID; assay type: cell-based; conditions: various dilutions of iCP9 virus, 4 hours after CID
Method: FIG. 6 is a graph showing cells exposed to various dilutions of virus encoding the iCP9 gene and then CID was added to the culture media. 4 hours later, Apoptosis ELISA was performed. […] Thus apoptosis correlated with iCP9 gene expression. X-axis is virus dilution. Y-axis is ELISA absorption at 405 nm.
(§1) EGFP is also produced from the same viral plasmid and promoter. […] However, cells not transfected with virus (EGFP negative) persisted in culture. […] A Cell Death Detection ELISA Plus (Roche Inc) was also performed to determine the level of apoptosis in culture after cells infected with various dilutions of virus were exposed to CID.

A2B5+ cells = experiment: Mixed cortical cultures infected with pLpPDGFR(iCP9)MG and exposed to CID; assay type: cell-based, rat; conditions: four hours after CID, loss of viable cell morphology
Excerpt: To confirm the cell specificity of the PDGFR-α promoter system, rat-derived primary cortical cultures were infected with pLpPDGFR(iCP9)MG virus. […] This provides data supporting the oligoprecursor-specificity of the PDGFR-α promoter system.

293T cells = experiment: CID-induced apoptosis in 293T cells transfected with iCP9 lentivirus or control virus; assay type: cell-based
Method: as §1

[7] = test system: oligodendrocytes (MBP staining cells); experiment: pLpMBP(iCP9)MG injected into corpus callosum, then CID; assay type: in vivo, rat; conditions: after CID
GFAP+ cells (astrocytes) [8] = experiment: pLpGFAP(iCP9)MG injected into corpus callosum, then CID into ipsilateral ventricle; assay type: in vivo, rat; conditions: 24 hours after CID
Method: The system was tested in vivo to ensure that cell specific apoptosis could be induced and the timing of cell ablation controlled as it was in vitro. To this end, virus was injected into the corpus callosum of adult Fischer rats and then three weeks later CID was administered into the ipsilateral ventricle. Rats were sacrificed 24-hours thereafter, brains removed in whole, fixed and cyrosectioned for analysis. […] The TUNEL (TdT-mediated dUTP-X nick end-labeling) system adds a tag on to DNA that has been fragmented during the apoptosis cascade allowing for labeling using standard immunohistochemistry. Thin sections derived from control rats receiving glycerol rather than CID were TUNEL negative. Consecutive thin sections were then stained with anti-GFAP antibody to identify astrocytes. […] This confirmed that in vivo the iCP9 system induces apoptosis only after CID administration and effectively ablates GFAP+ astrocytes.

Compound: CC[C@H](C(=O)N1CCCC[C@H]1C(=O)O[C@H](CCc1ccc(OC)c(OC)c1)c1cccc(OCC(=O)NCC(CNC(=O)COc2cccc([C@@H](CCc3ccc(OC)c(OC)c3)OC(=O)[C@@H]3CCCCN3C(=O)[C@@H](CC)c3cc(OC)c(OC)c(OC)c3)c2)CN(C)C)c1)c1cc(OC)c(OC)c(OC)c1 [CID]
- morphology of A2B5/EGFP, GFAP/EGFP and O4/EGFP positive cells ([1]; non-target cell types): appeared morphologically normal before and after CID exposure
- morphology of MBP-positive, EGFP-positive cells after CID ([1]; relative to cells not exposed to CID): appeared disrupted
- cell death of infected cells [2]: induced the cellular death of infected cells
- EGFP positive cells after CID (GFAP+ cells (astrocytes) [3]): a decrease in EGFP positive cells
- time to cell death of oligodendrocytes after CID [4]: 4 to 6 h
- apoptosis of infected CNS region [5]: resulting in apoptosis of the infected region of the CNS
- apoptosis level (ELISA absorption at 405 nm) [6]: Apoptosis levels decreased with dilution of virus
- apoptosis of A2B5+ cells (A2B5+ cells): identified undergoing apoptosis
- apoptosis of EGFP-positive cells after CID (293T cells; 293T cells, pLpCMV(iCP9)MG virus): rapidly underwent apoptosis
- EGFP-positive cells after CID, control virus (293T cells; cultures transfected with control virus pLpCMVXMG): EGFP-positive cells persisted
- anti-MBP staining at site of infection ([7]; glycerol controls normal): failed to stain with anti-MBP antibody at the site of infection
- TUNEL positive cells ([7]; not in glycerol controls): TUNEL positive cells were identified at the site of infection
- anti-GFAP staining at area of viral infection (GFAP+ cells (astrocytes) [8]): GFAP+ cells were not detected at the area of viral infection
- TUNEL staining (GFAP+ cells (astrocytes) [8]; glycerol controls TUNEL negative): TUNEL positive staining at the site of virus infection
